Laboratory results as given in patent US10458996B1, “Methods for determining clinical response to TNF-alpha and/or JAK inhibitors in subjects with inflammatory diseases” (Beth Israel Deaconess Medical Center, Inc., priority 2016, dated 2019).

Columns and labels:
[1] = test system: intestinal mucosal explants from patients with IBD; assay: Ex vivo infliximab treatment of intestinal mucosal explant cultures, cytokines in supernatant by multiplex ELISA; format: cell-based, human; conditions: for GM-CSF inhibition by ex vivo infliximab treatment, % patients / GM-CSF inhibition by ex vivo infliximab treatment, N patients / IFNγ inhibition by ex vivo infliximab treatment, % patients / IFNγ inhibition by ex vivo infliximab treatment, N patients / IL-1β inhibition by ex vivo infliximab treatment, % patients / IL-1β inhibition by ex vivo infliximab treatment, N patients / IL-2 inhibition by ex vivo infliximab treatment, % patients / IL-2 inhibition by ex vivo infliximab treatment, N patients / IL-4 inhibition by ex vivo infliximab treatment, % patients / IL-4 inhibition by ex vivo infliximab treatment, N patients / IL-5 inhibition by ex vivo infliximab treatment, N patients / IL-6 inhibition by ex vivo infliximab treatment, % patients / IL-6 inhibition by ex vivo infliximab treatment, N patients / IL-7 inhibition by ex vivo infliximab treatment, % patients / IL-7 inhibition by ex vivo infliximab treatment, N patients / IL-8 inhibition by ex vivo infliximab treatment, % patients / IL-8 inhibition by ex vivo infliximab treatment, N patients / IL-10 inhibition by ex vivo infliximab treatment, % patients / IL-10 inhibition by ex vivo infliximab treatment, N patients / IL-12p40 inhibition by ex vivo infliximab treatment, N patients / IL-12p70 inhibition by ex vivo infliximab treatment, % patients / IL-12p70 inhibition by ex vivo infliximab treatment, N patients / IL-13 inhibition by ex vivo infliximab treatment, N patients / IL-17A inhibition by ex vivo infliximab treatment, N patients / MCP-1 inhibition by ex vivo infliximab treatment, % patients / MCP-1 inhibition by ex vivo infliximab treatment, N patients / IL-5 inhibition by ex vivo infliximab treatment, % patients / IL-12p40 inhibition by ex vivo infliximab treatment, % patients / IL-13 inhibition by ex vivo infliximab treatment, % patients / IL-17A inhibition by ex vivo infliximab treatment, % patients: infliximab 0.5 mg/ml; for number of cytokines down-regulated in the ex vivo assay: mean±SEM; for ex vivo response rate / ex vivo response rate (patients): responder = down-regulation of >2 cytokines
Method: During a hospital visit for an endoscopic procedure that was part of their standard care, patients were asked by the study coordinator whether they were willing to participate in this research study and sign the informed consent approved by the Institution's Committee on Clinical Investigations. From each patient, four extra punch biopsies were taken from the macroscopically most diseased areas of the inflamed intestinal mucosa, put on ice and transferred to the lab within 30 minutes of their harvesting.
(§1) From each patient, intestinal mucosal biopsies were minced into several pieces and distributed in 8 wells of a 96-well plate in 250 μl of Dulbecco's Modified Eagle Medium (DMEM) supplemented with 10% FBS and antibiotic-antimycotic (Life Technologies, CA). Half of the cultures were treated with infliximab (REMICADE®; 0.5 mg/ml; Janssen Biotech, Inc, NJ) and the plate was incubated at 37° C. in a humidified chamber of 95% O2/5% CO2 for 18 hours. Culture supernatants were collected, filtered and stored at −80° C. […] Signal detection and analysis was performed by MAGPIX® (Luminex Corporation, TX).
Within each patient, differences in cytokine release between control and infliximab-treated cultures (n=4 per group) were assessed by the Mann-Whitney test. Cytokine changes in patients with CD (N=29) or UC (N=16) were expressed as mean±SEM and evaluated by unpaired t-test followed by Bonferroni correction for multiple comparisons. In rate or percentage comparisons a chi-square test was applied. The non-parametric Mann-Whitney test was chosen for the rest of two-group analyses. The STATView 2.0 software (SAS Institute) was used for all tests with the exception of the Receiver Operating Characteristic (ROC) analysis for which STATA13 was used.
The impact of anti-TNFα (infliximab) treatment was investigated in vitro using mucosal biopsy cultures derived from the most inflamed areas of the terminal ileum or colon of a total of 45 patients with IBD, 64% with CD and 36% with UC. At the time the biopsies were taken, 32 patients (71%) were receiving medications for their IBD and 16 of them were under an anti-TNFα regimen. The assay read-out consisted of a panel of 15 cytokines, chemokines and inflammatory mediators, and its design was based on previously reported biomarkers for CD and UC, on biomarkers that correlated with response to anti-TNFα treatment and on plausible TNF-alpha related biological mechanisms (Tracey et al., Rismo et al., Iskandar et al., Transl Res 159:313-325, 2012; Umehara et al., Hepatogastroenterology 53:879-882, 2006). For each patient and each cytokine, data were generated for the two conditions (plus/minus infliximab) using the median of 4 independent cultures.

[2] = test system: biopsy samples from patients with IBD; assay: Cytokine profiles of patient biopsy cultures in response to treatment with various agents (Example 2); format: cell-based, human
Method: as §1
Patients with IBD were treated with 0.5 mg/ml infliximab (an anti-TNFα antibody; therapeutic agent), 100 μM tofacitinib (a Janus kinase (JAK) inhibitor) and an experimental drug (at 10 μM concentration) in accordance with the protocol described above. Following treatment, biopsy samples were obtained and analyzed for cytokine profiles using […].
Additional similar experiments were conducted for different patients using the same or different therapeutic agents, and the results are shown in FIG. 5D-5H.

patients with IBD = assay: Clinical response to anti-TNFα therapy in study patients (review of hospital records); format: in vivo, human
Method: Upon study completion, a total of 28 patients ([…]) with IBD, 82% with CD, had received anti-TNFα therapy. Specifically, 18 patients were treated with infliximab, 8 patients with adalimumab, 1 patient with golimumab and 1 patient with cetrolizumab pegol. The study participants' hospital electronic records were reviewed by physicians blinded to the results of the ex vivo testing and clinical responses to treatment with anti-TNFα were assessed.
Patients belonging to cohort 1 (N=6) came into the study as anti-TFNalpha naïve and had the shorter follow-up.
(a) need for hospitalization or surgical intervention for IBD-related problems (N=4);
(b) dose or frequency escalation of anti-TNFα treatment or switching to another anti-TNFα regimen (N=4);
(c) adding corticosteroids or an immunomodulator to the therapeutic scheme (N=3);
(d) treatment with emerging IBD drugs such as vedolizumab, tofacitinib, or ustekinumab (N=6).

patients with CD and UC = conditions: cited from earlier work
patients with UC = conditions: cited from earlier work
[3] = test system: patients with moderate-to-severe CD; conditions: week 24 of intervention; cited from earlier work
[4] = cited from earlier work
[5] = Clinical Response No (n = 17), 18 hours
[6] = Clinical Response No (n = 17), some values below detection limit or missing, 18 hours
[7] = Clinical Response Yes (n = 11), 18 hours
[8] = Clinical Response Yes (n = 11), some values below detection limit or missing, 18 hours
[9] = Mann-Whitney within each patient, 0.5 mg/ml, 18 hours
[10] = cohort 1, anti-TNFα naïve IBD patients
[11] = cohort 2, anti-TNFα exposed patients

## infliximab
[1]; [5]
  GM-CSF inhibition by ex vivo infliximab treatment, % patients: 5.9%
  GM-CSF inhibition by ex vivo infliximab treatment, N patients: 1
  IFNγ inhibition by ex vivo infliximab treatment, % patients: 23.5%
  IFNγ inhibition by ex vivo infliximab treatment, N patients: 4
  IL-1β inhibition by ex vivo infliximab treatment, % patients: 11.8%
  IL-1β inhibition by ex vivo infliximab treatment, N patients: 2
  IL-2 inhibition by ex vivo infliximab treatment, % patients: 11.8%
  IL-2 inhibition by ex vivo infliximab treatment, N patients: 2
  IL-4 inhibition by ex vivo infliximab treatment, % patients: 5.9%
  IL-4 inhibition by ex vivo infliximab treatment, N patients: 1
  IL-5 inhibition by ex vivo infliximab treatment, N patients: 1
  IL-6 inhibition by ex vivo infliximab treatment, % patients: 5.9%
  IL-6 inhibition by ex vivo infliximab treatment, N patients: 1
  IL-7 inhibition by ex vivo infliximab treatment, % patients: 0.0%
  IL-7 inhibition by ex vivo infliximab treatment, N patients: 0
  IL-8 inhibition by ex vivo infliximab treatment, % patients: 5.9%
  IL-8 inhibition by ex vivo infliximab treatment, N patients: 1
  IL-10 inhibition by ex vivo infliximab treatment, % patients: 11.8%
  IL-10 inhibition by ex vivo infliximab treatment, N patients: 2
  IL-12p40 inhibition by ex vivo infliximab treatment, N patients: 3
  IL-12p70 inhibition by ex vivo infliximab treatment, % patients: 17.6%
  IL-12p70 inhibition by ex vivo infliximab treatment, N patients: 3
  IL-13 inhibition by ex vivo infliximab treatment, N patients: 0
  IL-17A inhibition by ex vivo infliximab treatment, N patients: 0
  MCP-1 inhibition by ex vivo infliximab treatment, % patients: 5.9%
  MCP-1 inhibition by ex vivo infliximab treatment, N patients: 1
[1]; [6]
  IL-5 inhibition by ex vivo infliximab treatment, % patients: 7.7%
  IL-12p40 inhibition by ex vivo infliximab treatment, % patients: 20.0^∧ %
  IL-13 inhibition by ex vivo infliximab treatment, % patients: 0.0^∧ %
  IL-17A inhibition by ex vivo infliximab treatment, % patients: 0.0^∧ %
[1]; [7]
  GM-CSF inhibition by ex vivo infliximab treatment, % patients: 9.1%
  GM-CSF inhibition by ex vivo infliximab treatment, N patients: 1
  IFNγ inhibition by ex vivo infliximab treatment, % patients: 45.5%
  IFNγ inhibition by ex vivo infliximab treatment, N patients: 5
  IL-1β inhibition by ex vivo infliximab treatment, % patients: 45.5%
  IL-1β inhibition by ex vivo infliximab treatment, N patients: 5
  IL-2 inhibition by ex vivo infliximab treatment, % patients: 45.5%
  IL-2 inhibition by ex vivo infliximab treatment, N patients: 5
  IL-4 inhibition by ex vivo infliximab treatment, % patients: 63.6%
  IL-4 inhibition by ex vivo infliximab treatment, N patients: 7
  IL-5 inhibition by ex vivo infliximab treatment, % patients: 81.8%
  IL-5 inhibition by ex vivo infliximab treatment, N patients: 9
  IL-6 inhibition by ex vivo infliximab treatment, % patients: 0.0%
  IL-6 inhibition by ex vivo infliximab treatment, N patients: 0
  IL-7 inhibition by ex vivo infliximab treatment, N patients: 8
  IL-8 inhibition by ex vivo infliximab treatment, % patients: 0.0%
  IL-8 inhibition by ex vivo infliximab treatment, N patients: 0
  IL-10 inhibition by ex vivo infliximab treatment, % patients: 18.2%
  IL-10 inhibition by ex vivo infliximab treatment, N patients: 2
  IL-12p40 inhibition by ex vivo infliximab treatment, % patients: 45.5%
  IL-12p40 inhibition by ex vivo infliximab treatment, N patients: 5
  IL-12p70 inhibition by ex vivo infliximab treatment, % patients: 27.3%
  IL-12p70 inhibition by ex vivo infliximab treatment, N patients: 3
  IL-13 inhibition by ex vivo infliximab treatment, N patients: 7
  IL-17A inhibition by ex vivo infliximab treatment, % patients: 72.7%
  IL-17A inhibition by ex vivo infliximab treatment, N patients: 8
  MCP-1 inhibition by ex vivo infliximab treatment, % patients: 9.1%
  MCP-1 inhibition by ex vivo infliximab treatment, N patients: 1
[1]; [8]
  IL-7 inhibition by ex vivo infliximab treatment, % patients: 88.8%
  IL-13 inhibition by ex vivo infliximab treatment, % patients: 70.0%
[1]; [9]
  number of cytokines per patient, besides TNFα, significantly inhibited ex vivo, maximum: 12
  number of cytokines per patient, besides TNFα, significantly inhibited ex vivo, median: 2
  number of cytokines per patient, besides TNFα, significantly inhibited ex vivo, minimum: 0
[1]; all patients tested, p<0.0001, 0.5 mg/ml, 18 hours
  Changes in TNFα levels in culture supernatant: robustly down-regulated
[1]; clinical non-responders to anti-TNFα therapy
  number of cytokines down-regulated in the ex vivo assay: 1.29±0.63
[1]; clinical responders to anti-TNFα therapy
  number of cytokines down-regulated in the ex vivo assay: 6.0±1.02
[1]; clinical responders versus non-responders to anti-TNFα therapy
  ex vivo inhibition of IL-17A, IL-7, IL-5 and IL-4/IL-13: almost exclusively observed in the clinical responders
[1]; [10]
  ex vivo response rate: 45.5%
  ex vivo response rate (patients): 10/23
[1]; [11]
  ex vivo response rate: 43.5%
  ex vivo response rate (patients): 10/22
[1]; group means, CD and UC patients, 0.5 mg/ml, 18 hours
  magnitude of infliximab-mediated inhibition of the rest of cytokines (other than TNFα): < 30%
[1]; patients with CD (N=29), 0.5 mg/ml, 18 hours
  cytokines whose inhibition reached statistical significance: IL-2 (p<0.001), IL-12p40 (p<0.05) and IL-5 (p<0.05)
[1]; patients with UC (N=16), 0.5 mg/ml, 18 hours
  cytokines whose inhibition reached statistical significance: IL-1β (p<0.05) and IL-7 (p<0.05)
[2]; 0.5 mg/ml, cytokine responder group compared to non-responder group (FIG. 5A)
  biomarkers with reductions in level achieving statistical significance: IL-12p40, IL-12p70, IL-13, IL-17A, IL-2, IL-4, IL-5, and IL-7
[2]; 0.5 mg/ml, responder and non-responder groups (FIG. 5A)
  TNFα levels: significantly attenuated in both groups
[2]; patient ID 13-284 (FIG. 5D)
  ex vivo response of patient: ex vivo responder
[2]; patient ID 13-284 (FIG. 5D), in addition to the direct target TNFα
  changes in cytokine profile: three cytokine expression down-regulation
Patients with IBD; patients positive in the ex vivo treatment (ex vivo responders, 10/12)
  clinical response rate: 83%
Patients with IBD; patients with negative ex vivo results (ex vivo non-responders, 1/16)
  clinical response rate: 6%
Patients with CD and UC; IBD patients
  sustained response rates beyond week 30: 30-40%
Patients with CD and UC; randomized clinical trials of CD and UC
  Primary response rates to induction therapy: up to 60%
Patients with UC; 10 mg/kg, week 8
  clinical response rates during induction: 61.5%
Patients with UC; week 53
  clinical response rates, maintenance therapy: 19.8%
[3]
  Mucosal healing rates: 30.1%
[4]; 483 patients with CD during maintenance therapy
  patients with undetectable infliximab serum levels: 23%
[4]; metanalysis, 95% CI:2-4.9
  risk to loose response in the presence of ADA: 3.2 fold
[4]; of the CD patients with undetectable infliximab serum levels
  patients positive for anti-drug antibodies (ADA): 72%
[4]; secondary loss of response
  patients developing anti-drug antibodies (ADA): 10%
